Legend:
Type in all cases: biochemical
Human Tyk2 kinase domain = target: T1, Human Tyk2 kinase domain (Homo sapiens, UniProt P29597); test: Tyk2 Inhibition Assay (Omnia kinase fluorescence peptide substrate assay); conditions: averaged IC50 ranges; assay of Example A; 10 μM (Km app) or 1 mM ATP, 2 nM Tyk2
T1 construct: comprising amino acids 886 to 1187 with 10 additional histidine residues; 10xHis (histidine tag) (C, cleaved yes); made in house
T1 sequence (P29597 886-1187): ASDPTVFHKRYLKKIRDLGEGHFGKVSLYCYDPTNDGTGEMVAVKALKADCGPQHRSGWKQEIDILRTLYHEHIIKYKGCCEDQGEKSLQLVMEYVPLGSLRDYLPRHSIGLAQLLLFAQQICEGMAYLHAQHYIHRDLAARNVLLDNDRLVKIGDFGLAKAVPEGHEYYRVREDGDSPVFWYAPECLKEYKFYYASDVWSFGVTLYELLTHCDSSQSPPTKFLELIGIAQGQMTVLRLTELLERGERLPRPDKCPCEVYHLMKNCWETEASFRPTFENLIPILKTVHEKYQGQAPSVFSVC
How it was run: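 2 nM His-tag-cleaved kinase domain (aa 886–1187) with 8 μM Omnia Y12 peptide, 10 μM (Km app) or 1 mM ATP, pH 7.4 HEPES/10 mM MgCl2, 2% DMSO. Fluorescence (ex 360/em 485 nm) every 50 s for 45 min; IC50 from 4-parameter fit of POC, top dose 10 μM.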

JAK1 = target: T2, JAK1 (Homo sapiens, UniProt P23458); test: JAK1 Inhibition Assay (Omnia kinase fluorescence peptide substrate assay); conditions: averaged IC50 ranges; assay of Example B; 40 μM (Km app) or 1 mM ATP, 15 nM JAK1
T2 construct: purchased Invitrogen Corporation, Carlsbad, Calif; PV4775
T2 sequence (P23458 whole entry): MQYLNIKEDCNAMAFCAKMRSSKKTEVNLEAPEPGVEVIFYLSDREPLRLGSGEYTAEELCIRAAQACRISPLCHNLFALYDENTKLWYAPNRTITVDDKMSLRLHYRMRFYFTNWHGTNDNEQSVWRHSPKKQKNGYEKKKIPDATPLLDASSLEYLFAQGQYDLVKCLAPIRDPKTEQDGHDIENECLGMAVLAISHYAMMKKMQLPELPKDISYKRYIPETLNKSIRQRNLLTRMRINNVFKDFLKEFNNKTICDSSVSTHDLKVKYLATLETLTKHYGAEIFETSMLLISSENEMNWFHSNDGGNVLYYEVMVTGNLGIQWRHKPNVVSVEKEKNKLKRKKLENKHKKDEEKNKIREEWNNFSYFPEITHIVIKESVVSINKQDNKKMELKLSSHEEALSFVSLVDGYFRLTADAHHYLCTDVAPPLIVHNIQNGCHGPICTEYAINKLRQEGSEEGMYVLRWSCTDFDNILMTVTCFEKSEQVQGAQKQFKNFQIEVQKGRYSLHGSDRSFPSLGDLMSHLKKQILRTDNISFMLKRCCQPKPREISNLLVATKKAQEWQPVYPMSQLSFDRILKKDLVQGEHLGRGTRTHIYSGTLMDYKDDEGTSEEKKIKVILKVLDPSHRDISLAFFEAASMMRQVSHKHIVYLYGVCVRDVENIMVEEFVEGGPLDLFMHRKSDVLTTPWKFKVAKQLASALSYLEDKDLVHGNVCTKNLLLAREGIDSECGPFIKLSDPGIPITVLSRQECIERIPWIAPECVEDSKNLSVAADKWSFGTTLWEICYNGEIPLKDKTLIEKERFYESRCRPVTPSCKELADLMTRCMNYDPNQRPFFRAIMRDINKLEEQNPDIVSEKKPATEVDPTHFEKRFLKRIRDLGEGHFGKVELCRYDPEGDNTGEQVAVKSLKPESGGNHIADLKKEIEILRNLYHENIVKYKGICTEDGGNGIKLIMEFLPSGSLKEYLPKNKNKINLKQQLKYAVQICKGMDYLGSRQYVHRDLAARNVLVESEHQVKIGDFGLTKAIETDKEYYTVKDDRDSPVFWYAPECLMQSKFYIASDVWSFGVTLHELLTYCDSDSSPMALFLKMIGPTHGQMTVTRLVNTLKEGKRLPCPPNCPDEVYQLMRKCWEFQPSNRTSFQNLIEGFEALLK

JAK2 = target: T3, JAK2 (Homo sapiens, UniProt O60674); test: JAK2 Inhibition Assay (Omnia kinase fluorescence peptide substrate assay); conditions: averaged IC50 ranges; assay of Example C; 25 μM (Km app) or 1 mM ATP, 5 nM JAK2
T3 construct: purchased Invitrogen Corporation, Carlsbad, Calif; PV4288
T3 sequence (O60674 whole entry): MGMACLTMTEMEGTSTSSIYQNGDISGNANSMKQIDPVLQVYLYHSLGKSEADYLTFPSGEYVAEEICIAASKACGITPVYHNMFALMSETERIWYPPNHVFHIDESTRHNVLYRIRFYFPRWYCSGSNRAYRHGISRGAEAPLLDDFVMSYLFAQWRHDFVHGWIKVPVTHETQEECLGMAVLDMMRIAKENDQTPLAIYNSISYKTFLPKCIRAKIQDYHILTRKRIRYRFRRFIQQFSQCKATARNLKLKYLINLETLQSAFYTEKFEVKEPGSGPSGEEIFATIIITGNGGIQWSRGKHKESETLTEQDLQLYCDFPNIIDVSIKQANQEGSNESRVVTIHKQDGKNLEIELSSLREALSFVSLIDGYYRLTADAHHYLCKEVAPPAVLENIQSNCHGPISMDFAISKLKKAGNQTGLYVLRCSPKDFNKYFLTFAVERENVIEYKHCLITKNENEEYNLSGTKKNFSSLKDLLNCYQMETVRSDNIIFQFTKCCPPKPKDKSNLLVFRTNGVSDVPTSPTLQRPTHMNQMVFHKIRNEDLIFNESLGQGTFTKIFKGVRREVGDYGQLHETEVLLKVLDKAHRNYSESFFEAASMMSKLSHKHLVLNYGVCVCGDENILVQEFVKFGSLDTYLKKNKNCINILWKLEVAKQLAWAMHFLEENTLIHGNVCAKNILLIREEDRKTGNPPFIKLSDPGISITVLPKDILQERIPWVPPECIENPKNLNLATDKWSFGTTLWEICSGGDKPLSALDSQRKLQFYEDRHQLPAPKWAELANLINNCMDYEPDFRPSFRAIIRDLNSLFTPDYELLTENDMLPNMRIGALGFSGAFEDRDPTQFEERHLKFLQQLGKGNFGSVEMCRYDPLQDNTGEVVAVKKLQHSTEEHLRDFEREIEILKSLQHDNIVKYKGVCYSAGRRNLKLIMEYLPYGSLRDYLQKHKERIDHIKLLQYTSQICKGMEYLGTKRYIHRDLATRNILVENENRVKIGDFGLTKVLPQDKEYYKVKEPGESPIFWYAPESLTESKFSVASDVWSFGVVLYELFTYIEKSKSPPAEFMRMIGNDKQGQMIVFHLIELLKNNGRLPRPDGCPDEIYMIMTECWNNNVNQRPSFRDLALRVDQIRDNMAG
How it was run: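 A 10-point, 3-fold compound series (top 10 μM, 2% DMSO) was tested against 5 nM JAK2 with 10 μM Omnia Y7 substrate and either 1 mM or 25 μM (Km app) ATP. Buffer: pH 7.4 HEPES, MgCl2, Triton X-100, DTT. Sox fluorescence was monitored kinetically for 45 min; IC50 is the concentration giving 50 POC on a 4-parameter fit.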

JAK3 = target: T4, JAK3 (Homo sapiens, UniProt P52333); test: JAK3 Inhibition Assay (Omnia kinase fluorescence peptide substrate assay); conditions: averaged IC50 ranges; assay of Example D; 10 μM (Km app) or 1 mM ATP, 2.5 nM JAK3
T4 construct: purchased Invitrogen Corporation, Carlsbad, Calif; PV4080
T4 sequence (P52333 1-1124): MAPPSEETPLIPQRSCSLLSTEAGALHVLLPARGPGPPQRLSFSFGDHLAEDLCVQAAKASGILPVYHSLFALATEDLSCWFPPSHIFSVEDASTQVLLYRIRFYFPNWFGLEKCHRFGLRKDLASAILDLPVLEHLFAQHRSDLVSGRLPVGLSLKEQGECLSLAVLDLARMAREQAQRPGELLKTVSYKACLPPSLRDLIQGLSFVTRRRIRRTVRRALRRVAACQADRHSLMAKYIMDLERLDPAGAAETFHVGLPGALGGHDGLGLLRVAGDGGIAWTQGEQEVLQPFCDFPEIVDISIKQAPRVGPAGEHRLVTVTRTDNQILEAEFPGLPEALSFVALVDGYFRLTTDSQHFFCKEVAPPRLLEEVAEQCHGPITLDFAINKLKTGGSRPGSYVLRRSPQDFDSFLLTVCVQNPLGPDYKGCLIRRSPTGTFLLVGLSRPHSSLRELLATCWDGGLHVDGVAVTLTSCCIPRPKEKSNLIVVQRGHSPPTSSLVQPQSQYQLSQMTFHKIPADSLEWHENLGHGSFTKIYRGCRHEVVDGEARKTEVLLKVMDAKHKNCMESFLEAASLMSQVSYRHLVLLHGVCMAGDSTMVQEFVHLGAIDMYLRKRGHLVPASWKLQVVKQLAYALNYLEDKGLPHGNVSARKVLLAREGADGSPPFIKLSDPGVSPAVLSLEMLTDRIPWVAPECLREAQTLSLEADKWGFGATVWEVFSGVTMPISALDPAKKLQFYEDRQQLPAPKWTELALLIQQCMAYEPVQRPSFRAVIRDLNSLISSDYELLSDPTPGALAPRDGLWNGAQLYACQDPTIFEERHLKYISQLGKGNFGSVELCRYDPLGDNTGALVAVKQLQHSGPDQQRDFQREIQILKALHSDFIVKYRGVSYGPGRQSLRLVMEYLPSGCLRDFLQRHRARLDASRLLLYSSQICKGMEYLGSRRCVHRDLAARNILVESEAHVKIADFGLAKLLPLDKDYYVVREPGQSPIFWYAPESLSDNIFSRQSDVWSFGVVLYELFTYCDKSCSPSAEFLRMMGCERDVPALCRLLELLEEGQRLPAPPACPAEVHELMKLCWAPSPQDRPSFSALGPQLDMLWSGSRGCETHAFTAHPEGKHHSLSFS
How it was run: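 Kinase at 2.5 nM with 10 µM Omnia Y7 peptide and 10 µM (Km app) or 1 mM ATP in 25 mM HEPES pH 7.4, 10 mM MgCl2, 1 mM DTT, 0.01% Triton X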

Cn1cc(-c2cc3nccn3c(-c3cnn(C4(CC#N)CCN(CC(F)(F)F)C4)c3)n2)cn1 (stereo not shown) [Example 135, 2-(3-(4-(7-(1-methyl-1H-pyrazol-4-yl)imidazo[1,2-c]pyrimidin-5-yl)-1H-pyrazol-1-yl)-1-(2,2,2-trifluoroethyl)pyrrolidin-3-yl)acetonitrile]
IC50 (Human Tyk2 kinase domain): 10 to 100 nM | IC50 (JAK1): 100 to 1000 nM | IC50 (JAK2): 10 to 100 nM | IC50 (JAK3): 100 to 1000 nM

Cn1cc(-c2cc3nccn3c(-c3ccn(C4(CC#N)CN(S(=O)(=O)C5CC5)C4)c3)n2)cn1 [Example 136]
IC50 (Human Tyk2 kinase domain): < 10 nM | IC50 (JAK1): 10 to 100 nM | IC50 (JAK2): 10 to 100 nM | IC50 (JAK3): > 1000 nM

CN1CCN(c2ccc(-c3cc4nccn4c(-c4cnn(C5(CC#N)CN(CC(F)(F)F)C5)c4)n3)cc2)CC1 [Example 137, 2-(3-(4-(7-(4-(4-methylpiperazin-1-yl)phenyl)imidazo[1,2-c]pyrimidin-5-yl)-1H-pyrazol-1-yl)-1-(2,2,2-trifluoroethyl)azetidin-3-yl)acetonitrile]
IC50 (Human Tyk2 kinase domain): < 10 nM | IC50 (JAK1): 10 to 100 nM | IC50 (JAK2): 10 to 100 nM | IC50 (JAK3): 100 to 1000 nM

CN1CCN(c2ccc(-c3cc4nccn4c(-c4cnn(C5(CC#N)CN(S(=O)(=O)C(F)(F)F)C5)c4)n3)cc2)CC1 [Example 138, 2-(3-(4-(7-(4-(4-methylpiperazin-1-yl)phenyl)imidazo[1,2-c]pyrimidin-5-yl)-1H-pyrazol-1-yl)-1-(trifluoromethylsulfonyl)azetidin-3-yl)acetonitrile]
IC50 (Human Tyk2 kinase domain): < 10 nM | IC50 (JAK1): 10 to 100 nM | IC50 (JAK2): 10 to 100 nM | IC50 (JAK3): 100 to 1000 nM

Cc1ncc(-c2cc3nccn3c(-c3cnn(C4(CC#N)CN(S(=O)(=O)C(F)(F)F)C4)c3)n2)s1 [Example 139, 2-(3-(4-(7-(2-methylthiazol-5-yl)imidazo[1,2-c]pyrimidin-5-yl)-1H-pyrazol-1-yl)-1-(trifluoromethylsulfonyl)azetidin-3-yl)acetonitrile]
IC50 (Human Tyk2 kinase domain): < 10 nM | IC50 (JAK1): 10 to 100 nM | IC50 (JAK2): 10 to 100 nM | IC50 (JAK3): > 1000 nM

Cc1ncc(-c2cc3nccn3c(-c3cnn(C4(CC#N)CN(S(=O)(=O)C5CC5)C4)c3)n2)s1 [Example 140, 2-(1-(cyclopropylsulfonyl)-3-(4-(7-(2-methylthiazol-5-yl)imidazo[1,2-c]pyrimidin-5-yl)-1H-pyrazol-1-yl)azetidin-3-yl)acetonitrile]
IC50 (Human Tyk2 kinase domain): < 10 nM | IC50 (JAK1): 10 to 100 nM | IC50 (JAK2): 10 to 100 nM | IC50 (JAK3): > 1000 nM

COc1ncc(-c2cc3nccn3c(-c3cnn(C4(CC#N)CN(S(=O)(=O)C5CC5)C4)c3)n2)cn1 [Example 141, 2-(1-(cyclopropylsulfonyl)-3-(4-(7-(2-methoxypyrimidin-5-yl)imidazo[1,2-c]pyrimidin-5-yl)-1H-pyrazol-1-yl)azetidin-3-yl)acetonitrile]
IC50 (Human Tyk2 kinase domain): 10 to 100 nM | IC50 (JAK1): > 1000 nM | IC50 (JAK2): 100 to 1000 nM | IC50 (JAK3): > 1000 nM

COc1ncc(-c2cc3nccn3c(-c3cnn(C4(CC#N)CN(S(=O)(=O)C(F)(F)F)C4)c3)n2)cn1 [Example 142, 2-(3-(4-(7-(2-methoxypyrimidin-5-yl)imidazo[1,2-c]pyrimidin-5-yl)-1H-pyrazol-1-yl)-1-(trifluoromethylsulfonyl)azetidin-3-yl)acetonitrile]
IC50 (Human Tyk2 kinase domain): 10 to 100 nM | IC50 (JAK1): > 1000 nM | IC50 (JAK2): > 1000 nM | IC50 (JAK3): > 1000 nM

CS(=O)(=O)CCn1cc(-c2cc3nccn3c(-c3ccn(C4(CC#N)CN(CC(F)(F)F)C4)n3)n2)cn1 [Example 143, 2-(3-(3-(7-(1-(2-(methylsulfonyl)ethyl)-1H-pyrazol-4-yl)imidazo[1,2-c]pyrimidin-5-yl)-1H-pyrazol-1-yl)-1-(2,2,2-trifluoroethyl)azetidin-3-yl)acetonitrile]
IC50 (Human Tyk2 kinase domain): < 10 nM | IC50 (JAK1): 100 to 1000 nM | IC50 (JAK2): 10 to 100 nM | IC50 (JAK3): > 1000 nM

Cn1ccc(-c2cc3nccn3c(-c3ccn(C4(CC#N)CN(CC(F)(F)F)C4)n3)n2)cc1=O [Example 144, 2-(3-(3-(7-(1-methyl-2-oxo-1,2-dihydropyridin-4-yl)imidazo[1,2-c]pyrimidin-5-yl)-1H-pyrazol-1-yl)-1-(2,2,2-trifluoroethyl)azetidin-3-yl)acetonitrile]
IC50 (Human Tyk2 kinase domain): 10 to 100 nM | IC50 (JAK1): > 1000 nM | IC50 (JAK2): 100 to 1000 nM | IC50 (JAK3): > 1000 nM

Cn1cc(-c2cc3nccn3c(-c3ccn(C4(CC#N)CN(CC(F)(F)F)C4)n3)n2)ccc1=O [Example 145, 2-(3-(3-(7-(1-methyl-6-oxo-1,6-dihydropyridin-3-yl)imidazo[1,2-c]pyrimidin-5-yl)-1H-pyrazol-1-yl)-1-(2,2,2-trifluoroethyl)azetidin-3-yl)acetonitrile]
IC50 (Human Tyk2 kinase domain): < 10 nM | IC50 (JAK1): 100 to 1000 nM | IC50 (JAK2): 10 to 100 nM | IC50 (JAK3): > 1000 nM

N#CCC1(n2cc(-c3nc(-c4ccc(C(F)(F)F)cc4)cc4nccn34)cn2)CN(S(=O)(=O)C(F)(F)F)C1 [Example 146, 2-(3-(4-(7-(4-(trifluoromethyl)phenyl)imidazo[1,2-c]pyrimidin-5-yl)-1H-pyrazol-1-yl)-1-(trifluoromethylsulfonyl)azetidin-3-yl)acetonitrile]
IC50 (Human Tyk2 kinase domain): < 10 nM | IC50 (JAK1): 10 to 100 nM | IC50 (JAK2): 100 to 1000 nM | IC50 (JAK3): > 1000 nM

Cn1cc(-c2cc3nccn3c(-c3cnn(C4(CC#N)CC5(COC5)C4)c3)n2)cn1 [Example 148, 2-(6-(4-(7-(1-methyl-1H-pyrazol-4-yl)imidazo[1,2-c]pyrimidin-5-yl)-1H-pyrazol-1-yl)-2-oxaspiro[3.3]heptan-6-yl)acetonitrile]
IC50 (Human Tyk2 kinase domain): < 10 nM | IC50 (JAK1): 100 to 1000 nM | IC50 (JAK2): 10 to 100 nM | IC50 (JAK3): > 1000 nM

N#CCC1(n2cc(-c3nc(C4CC4)cc4nccn34)cn2)CN(CC(F)(F)F)C1 [Example 149, 2-(3-(4-(7-cyclopropylimidazo[1,2-c]pyrimidin-5-yl)-1H-pyrazol-1-yl)-1-(2,2,2-trifluoroethyl)azetidin-3-yl)acetonitrile]
IC50 (Human Tyk2 kinase domain): 100 to 1000 nM | IC50 (JAK1): > 1000 nM | IC50 (JAK2): > 1000 nM | IC50 (JAK3): > 1000 nM

Cn1cc(-c2cc3nccn3c(-c3cnn(C4(CC#N)CC5(CCOCC5)C4)c3)n2)cn1 [Example 150, 2-(2-(4-(7-(1-methyl-1H-pyrazol-4-yl)imidazo[1,2-c]pyrimidin-5-yl)-1H-pyrazol-1-yl)-7-oxaspiro[3.5]nonan-2-yl)acetonitrile]
IC50 (Human Tyk2 kinase domain): < 10 nM | IC50 (JAK1): 100 to 1000 nM | IC50 (JAK2): 10 to 100 nM | IC50 (JAK3): > 1000 nM

Cn1cc(-c2cc3nccn3c(-c3cnn(C4(CC#N)CC5(CCCCC5)C4)c3)n2)cn1 [Example 151, 2-(2-(4-(7-(1-methyl-1H-pyrazol-4-yl)imidazo[1,2-c]pyrimidin-5-yl)-1H-pyrazol-1-yl)spiro[3.5]nonan-2-yl)acetonitrile]
IC50 (Human Tyk2 kinase domain): < 10 nM | IC50 (JAK1): 100 to 1000 nM | IC50 (JAK2): 10 to 100 nM | IC50 (JAK3): 100 to 1000 nM
